Assay results as given in PubChem BioAssay AID1963974 (Molecular Pharmacology Branch, DTP, NCI, 2024).

Tested on: 648629-189-R-J1-PDC spheroids with HUVEC/MSC, viability
Experiment: Anticancer human tumor 648629-189-R-J1-PDC patient-derived bladder carcinoma cell line growth inhibition [PI3K]
Conditions: for IC50: curve of first compound; for viability, T/C: stronger effect = lower value
How it was run: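 Targeted small molecules plus PI3K inhibitors, half-log dose series from Cmax (default top 10 microM), were applied to heterotypic spheroids of cancer cells with HUVEC and MSCs. Viability indicated growth inhibition.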

[1] = second compound 0.0316 µM, first compound 0.000316 µM
[2] = second compound 0.0316 µM, first compound 0.001 µM
[3] = second compound 0.0316 µM, first compound 0.00316 µM
[4] = second compound 0.0316 µM, first compound 0.01 µM
[5] = second compound 0.0316 µM, first compound 0.0316 µM
[6] = second compound 0.0316 µM, first compound 0.1 µM
[7] = second compound 0.1 µM, first compound 0.000316 µM
[8] = second compound 0.1 µM, first compound 0.001 µM
[9] = second compound 0.1 µM, first compound 0.00316 µM
[10] = second compound 0.1 µM, first compound 0.01 µM
[11] = second compound 0.1 µM, first compound 0.0316 µM
[12] = second compound 0.1 µM, first compound 0.1 µM
[13] = second compound 0.316 µM, first compound 0.000316 µM
[14] = second compound 0.316 µM, first compound 0.001 µM
[15] = second compound 0.316 µM, first compound 0.00316 µM
[16] = second compound 0.316 µM, first compound 0.01 µM
[17] = second compound 0.316 µM, first compound 0.0316 µM
[18] = second compound 0.316 µM, first compound 0.1 µM
[19] = second compound 1 µM, first compound 0.000316 µM
[20] = second compound 1 µM, first compound 0.001 µM
[21] = second compound 1 µM, first compound 0.00316 µM
[22] = second compound 1 µM, first compound 0.01 µM
[23] = second compound 1 µM, first compound 0.0316 µM
[24] = second compound 1 µM, first compound 0.1 µM
[25] = second compound 3.16 µM, first compound 0.0316 µM
[26] = second compound 3.16 µM, first compound 0.1 µM
[27] = second compound 10 µM, first compound 0.0316 µM
[28] = second compound 10 µM, first compound 0.1 µM
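Further: spheroids exposed to agents for seven days before reading.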
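Wherever viability, T/C is given: percent of vehicle control luminescence where 100% = DMSO treated spheroids.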

`CC(C)n1nc(-c2ccc3oc(N)nc3c2)c2c(N)ncnc21` + CC(Nc1ccc2c(c1)OCCn1cc(N3C(=O)OCC3C(F)F)nc1-2)C(N)=O was tested, and the IC50 (second compound 0.00316 µM) was 61.3 nM, the IC50 (second compound 0.01 µM) was 59.5 nM and the IC50 (second compound 0.0316 µM) was 59 nM. For the same compound, the IC50 (second compound 0.1 µM) was 53.9 nM, the IC50 (second compound 0.316 µM) was 31.8 nM and the IC50 (second compound 1 µM) was 12.5 nM. The viability, T/C (second compound 0.00316 µM, first compound 0.000316 µM) was 119%, the viability, T/C (second compound 0.00316 µM, first compound 0.001 µM) was 100% and the viability, T/C (second compound 0.00316 µM, first compound 0.00316 µM) was 94.7%. It also gave a viability, T/C (second compound 0.00316 µM, first compound 0.01 µM) of 90%, a viability, T/C (second compound 0.00316 µM, first compound 0.0316 µM) of 68.8% and a viability, T/C (second compound 0.00316 µM, first compound 0.1 µM) of 36.2%. It also gave a viability, T/C (second compound 0.01 µM, first compound 0.000316 µM) of 102%, a viability, T/C (second compound 0.01 µM, first compound 0.001 µM) of 92.2% and a viability, T/C (second compound 0.01 µM, first compound 0.00316 µM) of 96.3%. It also gave a viability, T/C (second compound 0.01 µM, first compound 0.01 µM) of 95.5%, a viability, T/C (second compound 0.01 µM, first compound 0.0316 µM) of 74.3% and a viability, T/C (second compound 0.01 µM, first compound 0.1 µM) of 30%. The viability, T/C [1] was 119%, the viability, T/C [2] was 103% and the viability, T/C [3] was 98.3%. The viability, T/C [4] was 80%, the viability, T/C [5] was 75.9% and the viability, T/C [6] was 32.6%. The viability, T/C [7] was 89.1%, the viability, T/C [8] was 94.9% and the viability, T/C [9] was 80.3%. For the same compound, the viability, T/C [10] was 82.9%, the viability, T/C [11] was 72.5% and the viability, T/C [12] was 25.3%. For the same compound, the viability, T/C [13] was 81.6%, the viability, T/C [14] was 73.3% and the viability, T/C [15] was 78.6%. It also gave a viability, T/C [16] of 74.6%, a viability, T/C [17] of 50.2% and a viability, T/C [18] of 24.8%. It also gave a viability, T/C [19] of 65.6%, a viability, T/C [20] of 63.1% and a viability, T/C [21] of 67.2%. For the same compound, the viability, T/C [22] was 48%, the viability, T/C [23] was 39.8% and the viability, T/C [24] was 17.9%.

`CC(=O)c1c(C)c2cnc(Nc3ccc(N4CCNCC4)cn3)nc2n(C2CCCC2)c1=O` + Cc1nc(NC(=O)N2CCCC2C(N)=O)sc1-c1ccnc(C(C)(C)C(F)(F)F)c1 gave an IC50 (second compound 0.0316 µM) of over 100 nM, an IC50 (second compound 0.1 µM) of over 100 nM and an IC50 (second compound 0.316 µM) of over 100 nM. The IC50 (second compound 1 µM) was over 100 nM, the IC50 (second compound 3.16 µM) was over 100 nM and the IC50 (second compound 10 µM) was under 0.316 nM. The viability, T/C [1] was 91.4%, the viability, T/C [2] was 91.7% and the viability, T/C [3] was 100%. For the same compound, the viability, T/C [4] was 100%, the viability, T/C [5] was 96.6% and the viability, T/C [6] was 101%. It also gave a viability, T/C [7] of 91.1%, a viability, T/C [8] of 96.9% and a viability, T/C [9] of 93.7%. The viability, T/C [10] was 91.9%, the viability, T/C [11] was 107% and the viability, T/C [12] was 91.2%. The viability, T/C [13] was 80.9%, the viability, T/C [14] was 86.1% and the viability, T/C [15] was 85.1%. It also gave a viability, T/C [16] of 84.1%, a viability, T/C [17] of 90.2% and a viability, T/C [18] of 85.3%. It also gave a viability, T/C [19] of 72.4%, a viability, T/C [20] of 68.1% and a viability, T/C [21] of 73.7%. It also gave a viability, T/C [22] of 71.7%, a viability, T/C [23] of 70.5% and a viability, T/C [24] of 71.9%. The viability, T/C (second compound 3.16 µM, first compound 0.000316 µM) was 52.6%, the viability, T/C (second compound 3.16 µM, first compound 0.001 µM) was 53.2% and the viability, T/C (second compound 3.16 µM, first compound 0.00316 µM) was 61.6%. For the same compound, the viability, T/C (second compound 3.16 µM, first compound 0.01 µM) was 54.9%, the viability, T/C [25] was 54.6% and the viability, T/C [26] was 54.6%. For the same compound, the viability, T/C (second compound 10 µM, first compound 0.000316 µM) was 36.5%, the viability, T/C (second compound 10 µM, first compound 0.001 µM) was 44.9% and the viability, T/C (second compound 10 µM, first compound 0.00316 µM) was 38.9%. It also gave a viability, T/C (second compound 10 µM, first compound 0.01 µM) of 30.1%, a viability, T/C [27] of 44.1% and a viability, T/C [28] of 34%.

Work on `CCCS(=O)(=O)Nc1ccc(F)c(C(=O)c2c[nH]c3ncc(-c4ccc(Cl)cc4)cc23)c1F` + Cc1nc(NC(=O)N2CCCC2C(N)=O)sc1-c1ccnc(C(C)(C)C(F)(F)F)c1 yielded an IC50 (second compound 0.0316 µM) of 5130 nM, an IC50 (second compound 0.1 µM) of 5060 nM and an IC50 (second compound 0.316 µM) of 4810 nM. For the same compound, the IC50 (second compound 1 µM) was 4310 nM, the IC50 (second compound 3.16 µM) was 3690 nM and the IC50 (second compound 10 µM) was under 31.6 nM. It also gave a viability, T/C [5] of 122%, a viability, T/C [6] of 104% and a viability, T/C (second compound 0.0316 µM, first compound 0.316 µM) of 123%. For the same compound, the viability, T/C (second compound 0.0316 µM, first compound 1 µM) was 110%, the viability, T/C (second compound 0.0316 µM, first compound 3.16 µM) was 86.2% and the viability, T/C (second compound 0.0316 µM, first compound 10 µM) was 0.2%. For the same compound, the viability, T/C [11] was 115%, the viability, T/C [12] was 102% and the viability, T/C (second compound 0.1 µM, first compound 0.316 µM) was 114%. For the same compound, the viability, T/C (second compound 0.1 µM, first compound 1 µM) was 107%, the viability, T/C (second compound 0.1 µM, first compound 3.16 µM) was 84% and the viability, T/C (second compound 0.1 µM, first compound 10 µM) was 0.34%. The viability, T/C [17] was 93.3%, the viability, T/C [18] was 97.4% and the viability, T/C (second compound 0.316 µM, first compound 0.316 µM) was 96.9%. For the same compound, the viability, T/C (second compound 0.316 µM, first compound 1 µM) was 90.7%, the viability, T/C (second compound 0.316 µM, first compound 3.16 µM) was 79% and the viability, T/C (second compound 0.316 µM, first compound 10 µM) was 0.27%. The viability, T/C [23] was 81.1%, the viability, T/C [24] was 96.7% and the viability, T/C (second compound 1 µM, first compound 0.316 µM) was 103%. The viability, T/C (second compound 1 µM, first compound 1 µM) was 84.7%, the viability, T/C (second compound 1 µM, first compound 3.16 µM) was 68.7% and the viability, T/C (second compound 1 µM, first compound 10 µM) was 0.67%. For the same compound, the viability, T/C [25] was 63.1%, the viability, T/C [26] was 65.7% and the viability, T/C (second compound 3.16 µM, first compound 0.316 µM) was 62%. For the same compound, the viability, T/C (second compound 3.16 µM, first compound 1 µM) was 53.1%, the viability, T/C (second compound 3.16 µM, first compound 3.16 µM) was 58% and the viability, T/C (second compound 3.16 µM, first compound 10 µM) was 0.64%. For the same compound, the viability, T/C [27] was 43.7%, the viability, T/C [28] was 44.1% and the viability, T/C (second compound 10 µM, first compound 0.316 µM) was 33.7%. The viability, T/C (second compound 10 µM, first compound 1 µM) was 37%, the viability, T/C (second compound 10 µM, first compound 3.16 µM) was 27.3% and the viability, T/C (second compound 10 µM, first compound 10 µM) was 0.85%.
